# Assay results published in patent US5016655A, “Cigarette manufacturing process” (priority 1989, dated 1991).
# Read-outs that look alike come from different tables or passages of the source.
# How the values were obtained:
# [1] = tested on: radioactivity ([14C]NNN) in bronchial epithelium; assay: cyclohexanol vapor inhalation, [14C]NNN autoradiography (Examples 2 and 3); format: in vivo, C57BL/6J mouse; conditions: vapor 5 min
# Experimental: The mouse was kept in the closed beaker for about five minutes as the bottom of the beaker was maintained at 50° C. in a water bath. […] Handbook of Chemistry and Physics (1979), at D-203 to D-217.
# One hour later, the mouse was anesthetized lightly by ether and frozen by immersion in dry ice/hexane. […] Control experiments were conducted for comparison purposes and radioactivity was detected in the respiratory epithelium in the controls.
# Example 2 was duplicated, except that the mouse was kept in the closed beaker for five minutes as the bottom of the beaker was maintained at 26° C. in a water bath. […] After injection as in Example 2, the mouse was processed in the same manner as in Example 2.
# [2] = tested on: localization of nitrosamines (NNN, NNK) in tissues; assay: nitrosamine delocalization / blocking, general statements; conditions: in vivo
# [3] = transfer of cyclohexanol into smoke, standard smoking machine (Example 6)
# Experimental: Cyclohexanol appears to meet these criteria.
# Cigarettes were hand-laced with cyclohexanol, that is by evenly injecting the alcohol into the rod of a manufactured cigarette using a machine-controlled syringe. […] Sixty cigarettes were smoked on a standard smoking machine using Cambridge filter pads to collect the particulate phase, where most of the material is carried. A transfer efficiency of ten percent was established with this test cigarette. […]. The load was 620 micrograms per cigarette, and the transfer efficiency was ten percent. […].
# [4] = transfer of cyclohexanol to cigarette smoke, gas chromatography (Example 7)
# Experimental: This work was performed to determine the amount of cyclohexanol transferred to smoke from cigarettes loaded with the chemical. Duplicate runs were carried out. In each run, smoke from twenty cigarettes, twelve puffs/cigarette, was collected. Cyclohexanol was analyzed in both the particulate (filter extract) and non-particulate phases of cigarette smoke by gas chromatography. A standard curve was made and analyzed simultaneously with the samples.
# The total volume of smoke from 20 cigarettes=12×33.3×20=7992 ml [formula]
# These calculations are based on the following information:
# Using conventional manufacturing practices, 1,000 pounds of dressed rag tobacco yields 510,000 finished cigarettes. These ratios and yields are to be strictly monitored. The ratio of top dressing to rag tobacco is based on the published TLV's for the active ingredient of this dressing--cyclohexanol.
# [5] = calculated air concentrations of cyclohexanol from cigarette smoke; conditions: nine puffs at 35 ml, 315 ml
# Experimental: Therefore, 0.050 would be in 315 ml, which would be expected from nine puffs at 35 ml per puff. […] However, this exposure in contrast to the eight-hour work day assumption of the TLV is only during the actual puffing time for the smoker.
# rabbits = conditions: TLV documentation (1943); cited from earlier work
# mice = conditions: cited from earlier work
# human = conditions: cited from earlier work
# [6] = Table V; cited from earlier work
# [7] = tested on: smoker exposure versus effect level in animals; assay: daily body burden and exposure versus effect level
# F-344 rat esophagus = F-344 rat esophagus vs other tissues; cited from earlier work
# tumor formation = conditions: nasal cavity, salivary duct, esophagus, bronchial epithelium, liver; cited from earlier work
compound,measurement,setting,value
OC1CCCCC1 [Cyclohexanol],radioactivity in bronchial epithelium,"[1]; 26° C., 0.001% in air",No radioactivity was detected
same,radioactivity in bronchial epithelium,"[1]; 50° C., 0.01% in air",No radioactivity was detected
same,effectiveness against NNN or NNK,[2],effective against NNN
same,efficacy in the laboratory,[2],highly effective in the laboratory
same,smoked concentration as % of TLV,[3]; 620 micrograms per cigarette,99 % of cyclohexanol TLV
same,smoked concentration as % of TLV,[3]; 8750 micrograms loaded per cigarette,1389 % of TLV
same,% of TLV,[4]; Example 7 summary,59.5%
same,Percent of TLV,[4]; Fully Smoked Cigarette,59.5%
same,Percent TLV,"[4]; Instant (""Puff"") Exposure",4.9%
same,instantaneous concentration to a smoker as % of TLV,[5],about 75 % of the TLV value
same,"slight degenerative changes, air level",rabbits,about 600 mg per cubic meter
same,acute intravenous toxic dose,mice,270 mg/kg
same,TLV,human; Example 7 summary,200
same,TLV,human; Table of smokestream concentrations,200.0 µg/L
same,TLV,"human; Table of smokestream concentrations, listed as cyclohexanol",200 µg/L
same,OSHA safe air level,human; eight continuous hours,two hundred
same,Toxicity: OSHA time weighted average limit,human; eight hour work day and forty hour work week,200 mg/m^3
same,Boiling Point,[6],161 °C
same,body burden from a pack of cigarettes,"[7]; all cyclohexanol in smoke absorbed, 20 cigarettes",1.0 mg
same,daily burden,[7]; one pack a day smoker,0.014 mg/kg
same,mouse iv toxic dose versus human exposure,[7]; one pack a day smoker,"20,000 times"
same,difference in exposure versus effect level in animals,"[7]; rats, pharmacological changes (enzyme or neurotoxicity)","~20,000 fold"
"O=NN1CCCC1c1cccnc1 (stereo not drawn) [NNN, N'-Nitrosonoronicotine]",hydroxylation at the a-carbon of NNN adjacent to the pyridine ring,F-344 rat esophagus,preferentially catalyzes hydroxylation
same,number of sites of tumor formation,tumor formation,five
